Laboratory results: ChEMBL document CHEMBL5230151, “A review of synthetic bioactive tetrahydro-β-carbolines: A medicinal chemistry perspective” (Eur J Med Chem, 2021)
Values after ≈ are worked out from the molar mass of the structure shown. One block for each compound: values may come before it.

Columns and labels:
[1] = tested on: Tobacco mosaic virus; experiment: In vivo antiviral activity against tobacco mosaic virus assessed as protection activity at 500 ug/ml relative to control; type: functional; conditions: dose 500 µg/ml
[2] = tested on: Tobacco mosaic virus; experiment: In vivo antiviral activity against tobacco mosaic virus assessed as curative activity at 500 ug/ml relative to control; type: functional; conditions: dose 500 µg/ml
[3] = tested on: Tobacco mosaic virus; experiment: In vivo antiviral activity against tobacco mosaic virus assessed as virus inactivation at 500 ug/ml relative to control; type: functional; conditions: dose 500 µg/ml
[4] = tested on: Gaeumannomyces graminis; experiment: Antifungal activity against Gaeumannomyces graminis at 10 mg/ml relative to control; type: functional
[5] = tested on: Gaeumannomyces graminis; experiment: Antifungal activity against Gaeumannomyces graminis; type: functional, organism-based
[6] = tested on: Plasmodium berghei; experiment: Antiplasmodial activity against Plasmodium berghei assessed as inhibition of schizont maturation at 5 ug/ml relative to control; type: functional
[7] = target: T1, Protein deacetylase HDAC6 (Homo sapiens, UniProt Q9UBN7); experiment: Inhibition of human HDAC6
T1 sequence (Q9UBN7 whole entry): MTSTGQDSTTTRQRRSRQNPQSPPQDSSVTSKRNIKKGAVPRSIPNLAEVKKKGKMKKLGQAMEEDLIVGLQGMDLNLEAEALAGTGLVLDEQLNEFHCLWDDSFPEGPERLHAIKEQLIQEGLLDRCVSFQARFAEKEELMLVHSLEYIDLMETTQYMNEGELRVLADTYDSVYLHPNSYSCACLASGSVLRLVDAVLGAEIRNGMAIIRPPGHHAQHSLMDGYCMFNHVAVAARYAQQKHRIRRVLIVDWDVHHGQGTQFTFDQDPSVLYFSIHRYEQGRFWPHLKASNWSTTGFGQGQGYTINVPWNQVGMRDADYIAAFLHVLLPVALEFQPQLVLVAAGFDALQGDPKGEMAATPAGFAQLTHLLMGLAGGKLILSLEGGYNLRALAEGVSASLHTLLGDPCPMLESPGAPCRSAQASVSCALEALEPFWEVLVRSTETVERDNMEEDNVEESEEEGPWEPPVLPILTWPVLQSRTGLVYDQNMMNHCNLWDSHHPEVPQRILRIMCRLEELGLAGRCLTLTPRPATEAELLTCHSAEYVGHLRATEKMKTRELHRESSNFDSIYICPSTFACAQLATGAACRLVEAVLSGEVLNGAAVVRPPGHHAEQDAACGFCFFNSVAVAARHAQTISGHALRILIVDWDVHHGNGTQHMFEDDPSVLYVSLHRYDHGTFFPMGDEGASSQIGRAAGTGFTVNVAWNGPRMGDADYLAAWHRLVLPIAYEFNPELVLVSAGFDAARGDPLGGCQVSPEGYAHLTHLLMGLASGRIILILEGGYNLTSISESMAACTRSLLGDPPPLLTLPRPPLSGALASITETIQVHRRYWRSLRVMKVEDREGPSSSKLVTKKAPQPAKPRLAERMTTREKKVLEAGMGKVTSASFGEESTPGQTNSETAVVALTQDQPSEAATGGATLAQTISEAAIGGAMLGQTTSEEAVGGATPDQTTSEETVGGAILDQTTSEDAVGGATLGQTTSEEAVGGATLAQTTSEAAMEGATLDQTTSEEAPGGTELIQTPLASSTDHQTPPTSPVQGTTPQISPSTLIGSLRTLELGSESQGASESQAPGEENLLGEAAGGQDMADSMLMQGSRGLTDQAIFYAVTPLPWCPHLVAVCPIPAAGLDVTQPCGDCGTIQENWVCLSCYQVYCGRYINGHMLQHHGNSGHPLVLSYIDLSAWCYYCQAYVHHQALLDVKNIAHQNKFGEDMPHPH

[8] = target: T2, Acetylcholinesterase (Electrophorus electricus, UniProt O42275); experiment: Inhibition of electric eel AChE using acetylthiocholine iodide as substrate
[9] = target: Amyloid-beta precursor protein (Homo sapiens) (UniProt P05067); experiment: Inhibition of self-induced amyloid beta (1 to 42 ) (unknown origin) aggregation at 20 uM measured after 24 hrs by thioflavin-T fluorescence method relative to control
[10] = Inhibition of equine serum BuChE using butyrylthiocholine chloride as substrate
[11] = target: T3, cGMP-specific 3',5'-cyclic phosphodiesterase (Homo sapiens, UniProt O76074); experiment: Inhibition of human PDE5
[12] = target: T2, Acetylcholinesterase; experiment: Inhibition of electric eel AChE using acetylthiocholine iodide as substrate measured after 20 mins by Ellmans method
[13] = target: T3, cGMP-specific 3',5'-cyclic phosphodiesterase; experiment: Inhibition of human PDE5A using fluorescence-labelled substrate
[14] = Inhibition of equine serum BuChE using S-butylthiocholine iodide as substrate measured after 20 mins by Ellmans method; set-up: species or system […]
[15] = Inhibition of Plasmodium falciparum IspD
[16] = target: T3, cGMP-specific 3',5'-cyclic phosphodiesterase; experiment: Inhibition of PDE5 (unknown origin)
[17] = target: T4, Kinesin-like protein KIF11 (Homo sapiens, UniProt P52732); experiment: Inhibition of Eg5 ATPase activity (unknown origin)
T4 sequence (P52732 whole entry): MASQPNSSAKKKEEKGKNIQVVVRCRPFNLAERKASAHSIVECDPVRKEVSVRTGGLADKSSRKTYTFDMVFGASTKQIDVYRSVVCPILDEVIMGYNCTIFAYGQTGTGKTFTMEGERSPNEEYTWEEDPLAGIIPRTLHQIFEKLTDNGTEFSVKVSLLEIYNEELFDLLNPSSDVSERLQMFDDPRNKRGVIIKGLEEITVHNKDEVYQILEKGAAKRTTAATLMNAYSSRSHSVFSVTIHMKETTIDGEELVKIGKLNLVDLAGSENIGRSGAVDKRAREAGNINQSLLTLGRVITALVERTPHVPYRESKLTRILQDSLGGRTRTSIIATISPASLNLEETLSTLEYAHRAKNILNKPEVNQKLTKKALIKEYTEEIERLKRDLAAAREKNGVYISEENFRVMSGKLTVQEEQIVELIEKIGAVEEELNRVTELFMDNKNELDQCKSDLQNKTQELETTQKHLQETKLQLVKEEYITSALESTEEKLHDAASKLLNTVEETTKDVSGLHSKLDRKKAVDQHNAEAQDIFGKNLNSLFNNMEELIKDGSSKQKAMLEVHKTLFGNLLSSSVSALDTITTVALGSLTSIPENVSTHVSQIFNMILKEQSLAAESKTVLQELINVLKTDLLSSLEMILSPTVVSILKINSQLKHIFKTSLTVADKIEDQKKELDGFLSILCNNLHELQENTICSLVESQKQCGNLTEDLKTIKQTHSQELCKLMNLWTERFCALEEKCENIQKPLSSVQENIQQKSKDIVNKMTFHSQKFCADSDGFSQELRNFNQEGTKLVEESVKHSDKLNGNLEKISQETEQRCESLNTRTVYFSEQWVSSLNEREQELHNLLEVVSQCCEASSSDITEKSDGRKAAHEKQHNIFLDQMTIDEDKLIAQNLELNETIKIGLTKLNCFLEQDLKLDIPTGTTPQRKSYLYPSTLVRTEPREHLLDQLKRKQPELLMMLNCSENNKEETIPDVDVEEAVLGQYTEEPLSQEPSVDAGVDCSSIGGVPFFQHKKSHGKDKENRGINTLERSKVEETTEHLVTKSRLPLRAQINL

[18] = target: Histone deacetylase 1 (Homo sapiens, UniProt Q13547); experiment: Inhibition of human HDAC1
Sequence of Histone deacetylase 1 (Q13547 whole entry): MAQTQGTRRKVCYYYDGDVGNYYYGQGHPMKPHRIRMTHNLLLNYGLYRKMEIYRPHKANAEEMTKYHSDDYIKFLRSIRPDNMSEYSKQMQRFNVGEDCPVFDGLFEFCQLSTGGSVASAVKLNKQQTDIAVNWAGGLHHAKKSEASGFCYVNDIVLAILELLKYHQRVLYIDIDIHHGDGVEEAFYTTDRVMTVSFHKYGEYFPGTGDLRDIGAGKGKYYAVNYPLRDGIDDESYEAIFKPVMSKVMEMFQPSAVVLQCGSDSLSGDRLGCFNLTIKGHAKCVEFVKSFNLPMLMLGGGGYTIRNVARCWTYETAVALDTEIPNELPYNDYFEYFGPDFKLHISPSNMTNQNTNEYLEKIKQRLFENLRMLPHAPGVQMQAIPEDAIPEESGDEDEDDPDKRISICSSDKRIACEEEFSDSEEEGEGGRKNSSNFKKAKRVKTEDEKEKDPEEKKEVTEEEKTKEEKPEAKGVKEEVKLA

T2 sequence (O42275 whole entry): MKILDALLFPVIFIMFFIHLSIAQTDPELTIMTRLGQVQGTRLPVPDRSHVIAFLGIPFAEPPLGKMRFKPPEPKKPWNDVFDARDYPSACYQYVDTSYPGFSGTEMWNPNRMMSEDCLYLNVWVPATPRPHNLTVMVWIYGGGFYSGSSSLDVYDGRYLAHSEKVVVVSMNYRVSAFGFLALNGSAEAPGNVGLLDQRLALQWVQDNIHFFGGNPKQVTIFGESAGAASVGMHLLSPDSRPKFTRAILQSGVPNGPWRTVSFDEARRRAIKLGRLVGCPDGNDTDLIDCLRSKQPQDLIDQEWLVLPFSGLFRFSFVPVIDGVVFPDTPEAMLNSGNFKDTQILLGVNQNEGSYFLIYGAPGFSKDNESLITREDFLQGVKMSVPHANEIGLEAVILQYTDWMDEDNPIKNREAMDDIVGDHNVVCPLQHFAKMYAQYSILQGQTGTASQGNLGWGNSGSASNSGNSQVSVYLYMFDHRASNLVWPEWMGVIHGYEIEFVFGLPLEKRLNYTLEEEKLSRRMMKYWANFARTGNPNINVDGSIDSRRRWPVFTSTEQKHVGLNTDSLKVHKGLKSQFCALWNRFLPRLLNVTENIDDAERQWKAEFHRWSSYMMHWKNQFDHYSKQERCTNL
Sequence of Amyloid-beta precursor protein (Homo sapiens) (P05067 whole entry): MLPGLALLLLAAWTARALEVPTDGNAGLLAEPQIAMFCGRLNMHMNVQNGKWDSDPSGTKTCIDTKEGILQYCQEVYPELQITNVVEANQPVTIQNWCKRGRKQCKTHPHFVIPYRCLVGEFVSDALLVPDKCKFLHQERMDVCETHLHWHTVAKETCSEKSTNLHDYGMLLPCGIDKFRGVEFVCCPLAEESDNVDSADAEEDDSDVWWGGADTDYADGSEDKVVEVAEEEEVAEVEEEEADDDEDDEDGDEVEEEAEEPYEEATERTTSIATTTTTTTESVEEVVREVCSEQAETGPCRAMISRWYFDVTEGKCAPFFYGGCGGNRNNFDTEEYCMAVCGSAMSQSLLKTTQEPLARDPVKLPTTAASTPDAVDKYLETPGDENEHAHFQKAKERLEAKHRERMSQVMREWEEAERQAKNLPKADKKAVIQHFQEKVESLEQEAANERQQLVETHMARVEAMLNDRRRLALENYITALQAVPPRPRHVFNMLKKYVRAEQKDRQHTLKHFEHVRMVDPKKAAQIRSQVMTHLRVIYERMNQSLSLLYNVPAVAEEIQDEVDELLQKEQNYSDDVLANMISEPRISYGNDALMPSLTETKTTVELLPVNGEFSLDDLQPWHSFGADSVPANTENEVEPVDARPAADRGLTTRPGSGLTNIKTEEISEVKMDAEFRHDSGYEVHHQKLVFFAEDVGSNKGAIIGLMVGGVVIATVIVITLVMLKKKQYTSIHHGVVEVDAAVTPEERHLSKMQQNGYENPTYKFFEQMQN

Compound: CC1N[C@H](C(=O)N/N=C/c2ccc(Cl)cc2)Cc2c1[nH]c1ccccc21 (stereo partly drawn)
Activity [1]: 68.1%
Activity [2]: 63.2%
Activity [3]: 66.9%

EC50 [5]: 3.53 µg/mL (≈ 9.09 µM)
Compound: C[C@@H]1COC(c2ccccc2NC(=O)[C@@H]2Cc3c([nH]c4ccccc34)[C@H](C)N2)=N1
inhibition at 10000 µg/mL [4]: 72.2%

Compound: COC(=O)[C@@H]1Cc2c([nH]c3ccccc23)[C@@H](c2cccnc2)N1
inhibition at 5 µg/mL [6]: 86.2%

Compound: CCCCOC(=O)[C@H]1Cc2c([nH]c3ccccc23)[C@H](C)N1
Activity [1]: 43.2%
Activity [2]: 42.2%
Activity [3]: 51.3%

Compound: CC1N[C@@H](C(=O)N/N=C/C2CCCCC2)Cc2c1[nH]c1ccccc21 (stereo partly drawn)
Activity [1]: 69.2%
Activity [2]: 62.8%
Activity [3]: 75.8%

IC50 [7]: 0.7 nM
Compound: CN1C(=O)C2CN(Cc3c2c2ccccc2n3Cc2ccc(C(=O)NO)cc2)C1=O (stereo not drawn)

Compound: CCOC(=O)[C@H]1Cc2c([nH]c3ccccc23)[C@H](C)N1
Activity [1]: 47.9%
Activity [2]: 43.9%
Activity [3]: 50.4%

Compound: CC1N[C@@H](C(=O)N/N=C/c2ccc(Cl)cc2)Cc2c1[nH]c1ccccc21 (stereo partly drawn)
Activity [1]: 64.2%
Activity [2]: 71.5%
Activity [3]: 70.4%

Compound: COc1ccc2[nH]c3c(c2c1)CCN(C(=O)/C=C/c1ccc(O)c(O)c1)C3C (stereo not drawn)
IC50 [8]: 75.3 µM
inhibition [9]: 65%
IC50 [10]: 6.47 µM

Compound: COC(=O)c1cc2c(cn1)[nH]c1ccccc12 [BETA-CCM]
IC50 [11]: 800 nM

Compound: CNCC(=O)N[C@@H](CO)C(=O)N[C@H]1[C@H](O)[C@@H](O)[C@H](n2ccc(N)nc2=O)O[C@@H]1C(N)=O [NINGNANMYCIN]
Activity [1]: 55%
Activity [2]: 54.2%
Activity [3]: 57.3%

Compound: O=C(CCCCN1CCc2c([nH]c3ccccc23)C1)Oc1ccc(/C=C2/CCc3nc4ccccc4c(=O)n32)cc1
IC50 [12]: 1.08 nM

IC50 [13]: 46 nM
Compound: O=C(CCCCCCN1CC(=O)N2[C@H](c3ccc(Br)cc3)c3[nH]c4ccccc4c3C[C@@H]2C1=O)NO

Compound: c1ccc2c(NCCCCCCCN3CCc4c([nH]c5ccccc45)C3)c3c(nc2c1)CCCC3
IC50 [14]: 3.16 nM
IC50 [12]: 17.4 nM

Compound: CC1c2[nH]c3ccccc3c2CCN1C(=O)/C=C/c1ccc(O)c(O)c1 (stereo not drawn)
IC50 [8]: 21.3 µM
IC50 [10]: 1.32 µM

IC50 [15]: 210 nM
Compound: O=C(O)[C@@H]1Cc2c([nH]c3ccccc23)[C@@H](c2ccc(Cl)cc2Cl)N1

IC50 [16]: 35 nM
Compound: COc1cccc2c1C(=O)N1CCc3c([nH]c4cccc(OC)c34)[C@@H]1C2C (stereo partly drawn)

IC50 [17]: 4.3 µM
Compound: CCCCN1C(=O)[C@@H]2Cc3c([nH]c4ccccc34)[C@@H](c3cccc(O)c3)N2C1=O

Compound: C[C@@H]1N[C@H](C(=O)Nc2ccccc2C2=N[C@@H](C)CO2)Cc2c1[nH]c1ccccc21
inhibition at 10000 µg/mL [4]: 65.8%

IC50 [13]: 653 nM
IC50 [18]: 197 nM
IC50 [7]: 239 nM
Compound: O=C(Cc1cnc(N2CCC(CN3CC(=O)N4[C@H](c5ccc6c(c5)OCO6)c5[nH]c6ccccc6c5C[C@@H]4C3=O)CC2)nc1)NO

Compound: COC(=O)[C@@H]1Cc2c([nH]c3ccccc23)[C@@H](c2ccc3c(c2)OCO3)N1
inhibition at 5 µg/mL [6]: 71.8%

Compound: C[C@@H]1N[C@@H](C(=O)NN)Cc2c1[nH]c1ccccc21
Activity [1]: 59.5%
Activity [2]: 57.2%
Activity [3]: 64.2%
